From US11136328B2, “3,3-difluoropiperidine carbamate heterocyclic compounds as NR2B NMDA receptor antagonists” (Rugen Holdings (Cayman) Limited, priority 2015, dated 2021)

How the values were obtained:
CYP2D6 = CYP2D6 (Homo sapiens (Human), UniProt P10635); assay: CYP P450 enzyme inhibition in pooled human liver microsomes; assay type: in vitro ADME; conditions: 10 μM compound, pooled HLM
Protocol: Those CYP isoforms and their corresponding probe substrates are as follows: CYP1A2 (phenacetin, 30 μM), CYP2C9 (tolutamide, 100 μM), CYP2C19 (S-mephenytoin, 40 μM), CYP2D6 (dextromethorphan, 5 μM) and CYP3A4 (midazolam, 1 μM). All probe substrates were used at concentrations near or below their Kms. For experiment, a reaction mixture of test compound at 10 μM or in serial dilution, CYP probe substrate described above and 0.2 mg/mL pooled HLM in phosphate buffer, pH 7.4 in a final volume of 200 μL was pre-incubated at 37° C. for 10 minutes in triplicate. The reaction was initiated by addition of NADPH at final concentration of 1 mM. The reaction was terminated after 10 minutes (CYP1A2, CYP2D6 and CYP3A4) or 30 minutes (CYP2C9 and CYP2C19) by addition of 100 μL ice-cold acetonitrile with internal standard (IS). The samples were then centrifuged at 13,000 rpm and the supernatants were injected to LC-MS/MS (Agilent Technologies) to quantify the concentration of the specific metabolites of the probe substrates formed by individual CYP450 isoforms. The inhibition ratio is calculated as: (Mt−M0)/Mwater×100% in which Mt and M0 represent the concentrations of the specific probe substrate metabolite, which was formed by individual CYP450 isoform, at the beginning and end of the reaction in the presence of test compound; while Mwater represents the concentration of the specific metabolite at the end of the reaction in the absence of test compound. Test compound concentration-dependent response data experiments performed in triplicate.

hERG channel = hERG channel (Homo sapiens (Human), UniProt Q12809); assay: hERG channel inhibition, whole cell patch clamp; assay type: cell-based; conditions: 10 μM compound
Protocol: The assay was performed on hERG channel stably expressed in HEK293 cells. The cells were cultured at 37° C. in a humidified CO2 incubator in the growth medium consisting of DMEM, 10% fetal bovine serum and antibiotics. Prior to the assay, the cells were seeded onto a 12 mm PDL-coated glass coverslip and cultured in a 35 mm Petri dish. After 16 to 40 hr culture, the cover slip was transferred into the chamber of OctaFlow perfusion system (ALA Instrument) and under a constant flow of extracellular solution (140 mM NaCl, 4 mM KCl, 1 mM MgCl2, 2 mM CaCl2, 10 mM HEPES, 10 mM D-glucose, pH 7.35, osmolarity 290). Whole cell patch clamping was performed with a glass micropipette filled with intracellular solution (120 mM KCl, 1.75 mM MgCl2, 5.4 mM CaCl2, 10 mM HEPES, 10 mM EGTA, and 4 mM ATP-K2, PH 7.2, osmolarity 310). Giga-seal was maintained during the test. The voltage control and current measurement were carried out using Axon amplifier 700B, Digidata 1440A and CLAMPEX10 software (Molecular Devices). Whole-cell hERG currents were recorded following the Petroski protocol: the cell was held at −80 mV, and the voltage step jumped from −80 to 30 mV and stay for 2 sec with a 20 ms prepulse at −40 mV. After depolarization, the voltage was decreased to −40 mV and stay for 2 sec, and returned back to −80 mV. Test compound was applied by quartz capillary tubes tip (200 μm inner diameter), and the flow rate was controlled at 2-3 ml/min with OctaFlow perfusion system. Different concentrations of the compound were applied to the cells for 5 min and the hERG current was measured three times before, during and after compound treatment. The data were analyzed using Clampfit 10 software (Molecular Devices) to generate IC50 values.

rats [1] = assay: Electroconvulsive Threshold Test (ECT); assay type: in vivo
Protocol: (§1) Test compound E1-8.2 was administered as the free base.
Rats were administered ECS (rectangular current: 0.6 ms pulse width, 1.5 s duration, 200 Hz) via earclip electrodes connected to a constant current shock generator (Ugo Basile: type 7801). Test compounds were administered by oral gavage (p.o.) 1 hour before the test at a dose volume of 5 mL/kg.
Treatment groups of 20 rats were exposed to ECS as follows: The first animal was exposed to 30 mA of ECS. […] (increases of 5 mA) until the first tonic convulsion was observed. Once the first tonic convulsion was observed, the intensity of ECS was decreased by 2 mA for the next animal and then decreased or increased by 2 mA from animal to animal depending on whether the previous animal convulsed or not. If the first animal did convulse (tonic convulsions) within 5 seconds, animal no 2 is exposed to 25 mA, etc. . . . (decreases of 5 mA) until the absence of tonic convulsions was observed. At this point, the intensity of ECS was increased by 2 mA for the next animal and then decreased or increased by 2 mA from animal to animal depending on whether the previous animal convulsed or not. The minimum current intensity applied is 5 mA and the maximum 95 mA. The first 5 animals serve to approach threshold current and were not included in the analysis. The results are presented as the mean current intensity administered to the final 15 animals of a group. The test was performed blind. A positive percent change indicates an anticonvulsant effect. A negative percent change indicates a proconvulsant effect. The test substance was evaluated at 4 doses, typically using 0.5% dimethylsulfoxide, 4% hydroxypropyl-b-cyclodextrin water as a vehicle, and administered p.o. 60 minutes before ECS, and compared with a vehicle control group. Diazepam (16 mg/kg p.o.), administered under the same experimental conditions, was used as reference substance. The experiment included 6 groups. Data with the test substance was analyzed by comparing treated groups with vehicle control using one-way ANOVA followed by Dunnett's t tests.

mice = assay: Forced Swim Test in mice; assay type: in vivo
Text: (§2) The forced swim test (FST) also known at the behavioural despair test was used to evaluate antidepressant activity (Porsolt et al., 1977 Arch. Int. Pharmacodyn. 229: 327-336, Porsolt et al., 1977, Eur. J. Pharmacol. 47:379-391). Mice or rats that are forced to swim in a situation from which they cannot escape, rapidly become immobile. Drugs with antidepressant activity, such as imipramine, reduce the amount of time spent in the immobile state. Therefore, the amount of immobility time during a test conducted after drug administration represents a useful indicator of antidepressant activity (Lucki et al 2001 Psychopharmacology 155:315-322; Porsolt et al., 1977, Nature 266:730-732).
Mice were evaluated in a single swimming test session of 6 minutes. Mice were placed in a transparent plastic cylinder 24 cm high with a diameter of 13 cm containing 10 cm of water with ambient temperature control generally from 22±2° C. Mice were placed in the water for 6 minutes and the duration of immobility during the last 4 minutes was measured.
Animals were observed by a blinded observer. […] The amount of time each animal spent in the immobile state (and the latency to the first bout of immobility) was recorded and used for statistical analysis of compound effect. Group differences were evaluated by student's t-test (reference substance) or one-way ANOVA followed by post-hoc Dunnett's test (test substances). […]
Male mice (strain NLMN) weighing 25-35 g were used for testing. […] The mice were videotaped for 6 minutes, and the last 4 minutes of video were analyzed by a blinded observer off-line. […] The amount of time each animal spent in the immobile state was recorded and used for statistical analysis of compound effect. Group differences were evaluated by student's t-test or one-way ANOVA followed by post-hoc Dunnett's test.
Mice were individually placed in a cylinder (height=24 cm; diameter=13 cm) containing 10 cm water (22° C.) from which they cannot escape. The mice were placed in the water for 6 minutes and the duration of immobility during the last 4 minutes was measured. […]

rats [2] = assay: Forced Swim Test in rats; assay type: in vivo, Wistar rats
Text: as §2
Male Wistar rats weighing 197-251 g were used for the rat test. Rats were evaluated according to a two-session procedure with a swimming session of 15 minutes on the first day of the experiment (Session 1) followed 24 hours later by a 5-minute swimming test (Session 2). […] Rats were placed in the water 24 h later for 5 minutes (Session 2) and the duration of immobility was measured.
Animals were observed by a blinded observer. […] The amount of time each animal spent in the immobile state (and the latency to the first bout of immobility) was recorded and used for statistical analysis of compound effect. […]

rats [3] = assay: Pentylenetetrazole (PTZ) Seizure Test; assay type: in vivo; conditions: 10 mg/kg p.o. 30 min before PTZ 100 mg/kg s.c.
Protocol: Rats, placed in individual macrolon cages (25×19×13 cm), were injected with pentylenetetrazole (PTZ) (100 mg/kg s.c.). The occurrence and latency of clonic and tonic convulsions and death were noted over a 30 minute period. 15 rats were studied per group. The test was performed blind.
as §1
Compounds were evaluated typically using 0.5% dimethylsulfoxide, 4% hydroxypropyl-b-cyclodextrin water as a vehicle at 1 or more doses (e.g., 1, 3 and 10 mg/kg), administered p.o. 30 minutes before PTZ, and compared with a vehicle control group. Diazepam (16 mg/kg p.o.), administered 60 minutes before PTZ, was used as reference substance. The experiment was performed over 2 separate sub-experiments with N=7 to 8 animals per group and per sub-experiment. Quantitative data (latencies) with the test substance was analyzed by comparing treated groups with vehicle control using Kruskal-Wallis test followed by Mann-Whitney U test. Quantitative data with the reference substance was analyzed using Mann-Whitney U test. Quantal data (frequencies) was analyzed by comparing treated groups with vehicle control using Fisher's Exact Probability tests (*=p<0.05; **=p<0.01; ***=p<0.001).

Sequence of CYP2D6 (P10635 whole entry): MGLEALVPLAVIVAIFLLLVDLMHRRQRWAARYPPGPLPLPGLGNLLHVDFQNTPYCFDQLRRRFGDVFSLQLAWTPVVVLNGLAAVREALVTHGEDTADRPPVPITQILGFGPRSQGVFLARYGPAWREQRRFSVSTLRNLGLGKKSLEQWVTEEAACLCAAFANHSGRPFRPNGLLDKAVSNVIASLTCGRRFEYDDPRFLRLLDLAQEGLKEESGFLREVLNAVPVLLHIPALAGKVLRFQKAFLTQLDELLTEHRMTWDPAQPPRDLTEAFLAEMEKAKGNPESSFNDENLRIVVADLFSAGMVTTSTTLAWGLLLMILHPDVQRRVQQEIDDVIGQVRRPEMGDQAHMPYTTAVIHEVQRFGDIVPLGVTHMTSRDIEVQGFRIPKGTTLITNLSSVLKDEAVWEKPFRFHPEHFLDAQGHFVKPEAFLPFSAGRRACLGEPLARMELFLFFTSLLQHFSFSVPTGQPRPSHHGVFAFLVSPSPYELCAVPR
Sequence of hERG channel (Q12809 whole entry): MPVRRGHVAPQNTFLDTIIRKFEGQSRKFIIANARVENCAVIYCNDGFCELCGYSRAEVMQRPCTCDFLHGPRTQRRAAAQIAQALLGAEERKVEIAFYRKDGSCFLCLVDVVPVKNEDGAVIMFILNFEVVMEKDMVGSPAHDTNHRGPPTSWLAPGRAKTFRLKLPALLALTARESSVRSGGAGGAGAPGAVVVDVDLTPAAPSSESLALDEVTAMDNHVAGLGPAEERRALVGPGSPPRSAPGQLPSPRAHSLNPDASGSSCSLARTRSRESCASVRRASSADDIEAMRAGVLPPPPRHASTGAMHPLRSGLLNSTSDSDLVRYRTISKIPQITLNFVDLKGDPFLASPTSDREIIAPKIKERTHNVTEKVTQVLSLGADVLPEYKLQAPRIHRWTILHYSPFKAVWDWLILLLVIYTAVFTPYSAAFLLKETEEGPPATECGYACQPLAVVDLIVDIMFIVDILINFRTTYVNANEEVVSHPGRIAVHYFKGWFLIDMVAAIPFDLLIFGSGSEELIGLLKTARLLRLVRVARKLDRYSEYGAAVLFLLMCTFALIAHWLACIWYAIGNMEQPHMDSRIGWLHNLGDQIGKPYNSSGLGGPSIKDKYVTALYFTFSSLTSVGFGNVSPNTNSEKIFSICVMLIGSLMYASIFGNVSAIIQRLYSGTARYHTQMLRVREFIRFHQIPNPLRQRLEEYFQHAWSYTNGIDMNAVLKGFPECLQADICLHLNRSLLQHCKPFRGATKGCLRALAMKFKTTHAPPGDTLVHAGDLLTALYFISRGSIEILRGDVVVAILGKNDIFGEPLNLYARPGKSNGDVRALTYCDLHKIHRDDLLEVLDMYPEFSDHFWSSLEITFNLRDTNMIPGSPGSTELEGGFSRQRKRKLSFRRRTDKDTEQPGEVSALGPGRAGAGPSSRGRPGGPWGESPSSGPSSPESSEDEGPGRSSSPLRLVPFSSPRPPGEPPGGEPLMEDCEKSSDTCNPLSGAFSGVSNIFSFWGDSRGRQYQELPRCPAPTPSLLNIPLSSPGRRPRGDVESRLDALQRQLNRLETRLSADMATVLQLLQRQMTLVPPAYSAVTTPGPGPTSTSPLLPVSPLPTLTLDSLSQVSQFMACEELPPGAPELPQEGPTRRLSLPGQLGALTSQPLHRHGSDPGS

| SMILES | CYP2D6 @ 10 μM (%) (CYP2D6) | hERG @ 10 μM (%) (hERG channel) | other results |
| --- | --- | --- | --- |
| Cc1ccc(COC(=O)N2CC[C@H](CNc3cncc4nncn34)C(F)(F)C2)cc1 [Compound E1-2.2, R-4-methylbenzyl 4-(([1,2,4]triazolo[4,3-a]pyrazin-5-ylamino)methyl)-3,3-difluoropiperidine-1-carboxylate] | 18 | 32 |  |
| FC(F)(F)c1ccc(C(F)(F)CN2CCC(Nc3ncnc4[nH]ncc34)CC2)cc1 [LX-1, reference compound] | 93 |  |  |
| Cc1ccc(COC(=O)N2CC[C@H](CNc3nc4ccccn4n3)C(F)(F)C2)cc1 [Compound E1-9.2, (+)-R-4-methylbenzyl 4-(([1,2,4]triazolo[1,5-a]pyridin-2-ylamino)methyl)-3,3-difluoropiperidine-1-carboxylate] | 14 | 38 |  |
| Cn1c(=O)c2[nH]cnc2n(C)c1=O [theophylline, reference compound] |  |  | activity on electroconvulsive threshold (rats [1]; 128 mpk p.o.): showed the expected proconvulsant activity |
| Cc1ccc(COC(=O)N2CC[C@H](CNc3ncc4cn[nH]c4n3)C(F)(F)C2)cc1 [Compound E1-8.2, (+)-R-4-methylbenzyl-4-((1H-pyrazolo[3,4-d]pyrimidin-6-ylamino)methyl)-3,3-difluoropiperidine-1-carboxylate] | 83 | 57 | activity on electroconvulsive threshold (rats [1]; 0.5 and 2 mpk p.o., free base): modest proconvulsant activity; activity on electroconvulsive threshold (rats [1]; 10 and 20 mpk p.o., free base): anticonvulsant activity |
| O=C(OCc1ccc(F)cc1)N1CC[C@H](CNc2nccn3cnnc23)C(F)(F)C1 [Compound E1-1.4, R-4-fluorobenzyl 4-(([1,2,4]triazolo[4,3-a]pyrazin-8-ylamino)methyl)-3,3-difluoropiperidine-1-carboxylate] | 19 | 11 |  |
| CN(C)CCCN1c2ccccc2CCc2ccccc21 [imipramine] |  |  | antidepressant activity (immobility time) (mice; 32 mpk i.p. once 30 min before the test): showed the expected antidepressant activity; antidepressant activity (immobility time) (mice; 64 mpk p.o. once 60 min before the test): showed the expected antidepressant activity; antidepressant activity (immobility time) (mice; 128 mpk p.o. once 60 minutes before the test on Day 7): showed the expected antidepressant activity; antidepressant activity (immobility time) (rats [2]; 32 mpk i.p. 3 times: 24 h, 4 h and 30 min before Session 2): showed the expected antidepressant activity; antidepressant activity (immobility time) (rats [2]; 64 mpk p.o. 3 times: 24 h, 4 h and 60 min before Session 2): showed the expected antidepressant activity |
| Cc1ccc(COC(=O)N2CC[C@H](CNc3cnccn3)C(F)(F)C2)cc1 [Compound E1-21.2, R-4-methylbenzyl 3,3-difluoro-4-((pyrazin-2-ylamino)methyl)piperidine-1-carboxylate] | 97 | 27 |  |
| O=C(OCc1ccc(Cl)cc1)N1CC[C@H](CNc2nccn3cnnc23)C(F)(F)C1 [Compound E1-1.3, R-4-chlorobenzyl 4-(([1,2,4]triazolo[4,3-a]pyrazin-8-ylamino)methyl)-3,3-difluoropiperidine-1-carboxylate] | 37 | 19 |  |
| Cc1ccc(COC(=O)N2CC[C@@H](CNc3nccn4cnnc34)C(F)(F)C2)cc1 [Compound E2-1.2, (−)-S-4-methylbenzyl 4-(([1,2,4]triazolo[4,3-a]pyrazin-8-ylamino)methyl)-3,3-difluoropiperidine-1-carboxylate] |  | 22 |  |
| Cc1ccc(COC(=O)N2CC[C@H](CNc3cnc(C)cn3)C(F)(F)C2)cc1 [Compound E1-21.26, R-4-methylbenzyl 3,3-difluoro-4-((5-methylpyrazin-2-ylamino)-methyl)piperidine-1-carboxylate] | 32 | 39 | activity on electroconvulsive threshold (rats [1]; 3 and 10 mpk p.o., mesylate salt): anticonvulsant activity; change in latency to death (rats [3]): +31%; change in number of deaths vs vehicle controls (rats [3]): −82% |
| CN1C(=O)CN=C(c2ccccc2)c2cc(Cl)ccc21 [diazepam, reference compound] |  |  | activity on electroconvulsive threshold (rats [1]; 16 mpk p.o.): showed the expected anticonvulsant activity |
